Values after ≈ are worked out from the molar mass of the structure shown. Where two headings read alike, the source gives them in different places.
Key:
[1] = molecular target: purified recombinant human LDHA protein (Homo sapiens, UniProt P00338); test: Lactate dehydrogenase-A (LDHA) inhibition assay, NADH consumption; format: biochemical; conditions: for inhibition at 100 µg/mL / inhibition at 200 µg/mL / IC50: LDHA; for inhibition at 100 µg/mL: read-out: Mean Inhibition % at 100 µg/ml ± SD; for inhibition at 200 µg/mL: read-out: Mean Inhibition % at 200 µg/ml ± SD
Method: LDHA inhibition activity was investigated by measuring the amounts of consumed NADH as described by Kim and his group. Briefly, different concentrations of each compound (50, 100, 200, and 300 µg) were incubated in buffer containing 20 mM of HEPES-K+ (pH 7.2), 20 μM of NADH, 2 mM of pyruvate, and 10 ng of purified recombinant human LDHA protein for 10 min. The fluorescence of NADH, which has an excitation wavelength of 340 nm and emission wavelength of 460 nm, was detected using a Spectrofluorometer.

[2] = test system: Escherichia coli (ATCC 25922); test: Antibacterial activity, CFU viability; format: cell-based; conditions: ATCC25922, mean of two determinations, read-out: Mean IC50 ± SD
Method: (§1) Pure standard microbial isolates collected from King Khaled University Hospital were tested in this study, including Enterococcus faecalis (ATCC 29122) as Gram positive bacteria and Escherichia coli (ATCC 25922) and Bacteroides fragilis (ATCC 25285) as Gram negative bacteria. Fresh cultures of each microorganism were grown on nutrient agar plates (Oxoid, UK), of which small inoculums were suspended in 5 mL nutrient broth for bacterial suspension preparation of 0.5MacFarland. Bacterial viability was investigated by estimating the colony-forming unit (CFU) ability of the bacteria incubated at different time intervals without or with appropriate amounts of the compound that were mixed with 2 × 10^7 CFU/mL in sterile BHI broths and were incubated under shaking for 60 min at 37 °C. Samples were serially diluted into sterile BHI broths, streaked onto media agar plates, and incubated for 24 h at 37 °C. The antibacterial potency of tested compounds was expressed as the residual number of CFU with reference to the initial inoculums. […] Ampicillin (1 mg/mL) was used as a positive standard reference.

[3] = test system: Bacteroides fragilis (ATCC 25285); test: Antibacterial activity, CFU viability; format: cell-based; conditions: ATCC25285, mean of two determinations, read-out: Mean IC50 ± SD
Method: as §1

[4] = test system: Enterococcus faecalis (ATCC 29122); test: Antibacterial activity, CFU viability; format: cell-based; conditions: ATCC29122, mean of two determinations, read-out: Mean IC50 ± SD
Method: as §1

COX-2 = molecular target: T1, COX-2 (Homo sapiens, UniProt P35354); test: Cyclooxygenase (COX-2) inhibition assay (Cayman kit 701080); format: biochemical; conditions: for inhibition at 100 µg/mL: read-out: Mean Inhibition % at 100 µg/ml ± SD; for inhibition at 200 µg/mL: read-out: Mean Inhibition % at 200 µg/ml ± SD
T1 construct: purchased Cayman Chemical Company 701080
T1 sequence (P35354 18-604): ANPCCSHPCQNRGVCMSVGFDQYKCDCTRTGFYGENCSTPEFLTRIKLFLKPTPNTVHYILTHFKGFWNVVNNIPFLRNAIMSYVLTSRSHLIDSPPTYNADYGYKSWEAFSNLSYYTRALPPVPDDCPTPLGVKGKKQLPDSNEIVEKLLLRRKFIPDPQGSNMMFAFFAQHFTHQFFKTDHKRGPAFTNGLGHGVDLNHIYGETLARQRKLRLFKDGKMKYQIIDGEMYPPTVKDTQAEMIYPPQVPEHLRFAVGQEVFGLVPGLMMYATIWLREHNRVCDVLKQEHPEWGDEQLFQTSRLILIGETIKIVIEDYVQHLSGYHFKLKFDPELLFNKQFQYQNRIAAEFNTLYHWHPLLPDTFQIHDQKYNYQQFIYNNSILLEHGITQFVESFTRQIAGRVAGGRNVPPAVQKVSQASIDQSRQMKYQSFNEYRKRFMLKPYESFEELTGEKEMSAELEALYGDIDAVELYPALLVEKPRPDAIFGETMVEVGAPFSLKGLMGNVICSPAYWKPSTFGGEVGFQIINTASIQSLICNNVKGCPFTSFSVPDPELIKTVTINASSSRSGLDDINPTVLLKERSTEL
Method: The compounds were resuspended in 100% DMSO at a final concentration of 10 mg/mL. […] The inhibitory activity was expressed as the inhibition percentage, which was determined by comparison with a control experiment. IC50 values were deduced from the curves.

[5] = In vitro cytotoxicity assay (LDH release); format: cell-based, human; conditions: human, 200 µg/ml, 24 h
Method: The best-in-class compounds, including (4c), (4d), (6a), (6b), (6d), (6e), and (6g), which were recognized as antimicrobial and enzymatic inhibitors, were further examined for their cytotoxic effects on LoVo and HCT-116 cells of human colon cancer. This was carried out by determining the residual percentages of viable cells after being treated with the compounds at different concentrations (50, 100, 200, and 400 µg/mL), using triton X-100 (at concentration of 0.1%) in the assay medium and the assay as the positive and negative controls, respectively.
Samples were diluted in Dulbecco’s modified Eagles medium, consisting of 10% fetal bovine serum, added to cells grown and cultured for 24 h in a 5% CO2-humidified incubator at 37 °C. Then, the activity of lactate dehydrogenase released from damaged cells was determined in the collected supernatant aliquots using an ELISA end-point assay (Benchmark Plus, Bio-Rad, CA, USA). The 0.1% Triton X-100 in the assay medium and the assay medium only were used as positive and negative controls, respectively. Cell viability, expressed as a relative percentage of the OD values (at 550 nm) for compound-treated cells (final concentration of 200 µg) and the control, is shown as mean ± SD (n = 2).

[6] = HCT-116 colon cancer cells, read-out: Mean % Cell Viability ± SD CRC-HCT-116 cells
[7] = LoVo colon cancer cells, read-out: Mean % Cell Viability ± SD CRC-LoVo cells

Row | Structure (SMILES) | inhibition at 100 µg/mL [1] | inhibition at 200 µg/mL [1] | IC50 [2] | IC50 [3] | IC50 [4] | inhibition at 100 µg/mL (COX-2) | inhibition at 200 µg/mL (COX-2) | IC50 [1] | IC50 (COX-2) | fold by which (6e) is more potent than the labelled compound (LDHA inhibition efficiency) ([1]; 200 µg/mL, comparator 6e) | viability at 24 h, 200 µg/ml [5, 6] | viability at 24 h, 200 µg/ml [5, 7] | viability at 24 h, 200 µg/mL [5, 6] | viability at 24 h, 200 µg/mL [5, 7]
1 | COc1ccc2cc(/C=N/n3c(C)nc4ccc(Cl)cc4c3=O)ccc2c1 [Compound 6c, 6-Chloro-3-oro-3-[(6-methoxy-naphthalen-2-ylmethylene)-amino]-2-methyl-3H-quinazolin-4-one] | 13.3 ± 0.919% | 23% | 26.9 ± 1.56 µg/mL (≈ 71.2 µM) | 30.1 ± 0.636 µg/mL (≈ 79.5 µM) | 20.4 ± 1.2 µg/mL (≈ 54.1 µM) | 23.8 ± 2.55% | 36.9 ± 1.63% | – | – | 3.3 fold | – | – | – | –
2 | COc1cc(C=NNc2nc3ccccc3[nH]c2=O)cc(I)c1O [Compound 4b, 3-[N’-(4-Hydroxy-3-iodo-5-methoxy-benzylidene)-hydrazino]-1H-quinoxalin-2-one] | 27.4 ± 2.4% | 35.4% | 13.6 ± 0.849 µg/mL (≈ 31.2 µM) | 40.6 ± 2.33 µg/mL (≈ 93.2 µM) | 30.3 ± 2.4 µg/mL (≈ 69.5 µM) | 12.3 ± 0.919% | 21.1% | – | – | – | – | – | – | –
3 | COc1cc2nc(C)n(N=Cc3cc(OC)c(O)c([N+](=O)[O-])c3)c(=O)c2cc1OC [Compound 6a, 3-[(4-Hydroxy-3-methoxy-5-nitro-benzylidene)-amino]-6,7-dimethoxy-2-methyl-3H-quinazolin-4-one] | 62.5% | 89.7% | 7.9 ± 0.849 µg/mL (≈ 19.1 µM) | 10.9 ± 0.566 µg/mL (≈ 26.3 µM) | 13.8 ± 0.495 µg/mL (≈ 33.4 µM) | 42.9 ± 2.97% | 83% | 248 µM | 293 µM | – | – | – | 91.2 ± 3.11% | 92.2 ± 2.62%

More lines, main results first:

Row | inhibition at 100 µg/mL [1] | inhibition at 200 µg/mL [1] | IC50 [2] | IC50 [3] | IC50 [4] | inhibition at 100 µg/mL (COX-2) | inhibition at 200 µg/mL (COX-2) | IC50 [1] | IC50 (COX-2) | Structure (SMILES) | fold by which (6e) is more potent than the labelled compound (LDHA inhibition efficiency) ([1]; 200 µg/mL, comparator 6e) | viability at 24 h, 200 µg/ml [5, 6] | viability at 24 h, 200 µg/ml [5, 7] | viability at 24 h, 200 µg/mL [5, 6] | viability at 24 h, 200 µg/mL [5, 7]
4 | 47.4 ± 3.96% | 85% | 30.6 ± 2.62 µg/mL (≈ 99.1 µM) | 28.2 ± 1.77 µg/mL (≈ 91.6 µM) | 10.8 µg/mL (≈ 35 µM) | 14.4 ± 0.778% | 28.9% | 362 µM | – | O=C(O)c1ccc(/C=N/Nc2nc3ccccc3[nH]c2=O)cc1 [Compound 4d, 4-[(3-Oxo-3,4-dihydro-quinoxalin-2-yl)-hydrazonomethyl]-benzoic acid] | – | 65.5 ± 3.54% | 60 ± 4.24% | – | –
5 | – | – | 20.2 µg/mL (≈ 58 µM) | 16.1 µg/mL (≈ 46.2 µM) | 12.8 µg/mL (≈ 36.5 µM) | – | – | – | – | CC1(C)S[C@@H]2[C@H](NC(=O)[C@H](N)c3ccccc3)C(=O)N2[C@H]1C(=O)O [Ampicillin, ampicillin, reference compound] | – | – | – | – | –
6 | 20.3 ± 1.63% | 28.2% | 15 ± 0.566 µg/mL (≈ 43.5 µM) | 13.3 ± 0.849 µg/mL (≈ 38.6 µM) | 27 ± 2.83 µg/mL (≈ 78.3 µM) | 4.65 ± 0.495% | 12.1% | – | – | COc1cc(C=NNc2nc3ccccc3[nH]c2=O)cc(Cl)c1O [Compound 4a, 3-[N’-(3-Chloro-4-hydroxy-5-methoxy-benzylidene)-hydrazino]-1H-quinoxalin-2-one] | – | – | – | – | –
7 | 33.8 ± 2.55% | 68.2% | 25.9 ± 0.778 µg/mL (≈ 159 µM) | 19.4 ± 1.48 µg/mL (≈ 119 µM) | 20.2 ± 1.06 µg/mL (≈ 125 µM) | 30.9 ± 2.62% | 48.1% | – | – | O=c1[nH]c2ccccc2[nH]c1=O [Compound 1] | – | – | – | – | –

Reference: article PMC8197120, “Synthesis and Characterization of Some New Quinoxalin-2(1H)one and 2-Methyl-3H-quinazolin-4-one Derivatives Targeting the Onset and Progression of CRC with SAR, Molecular Docking, and ADMET Analyses” (Molecules, 2021)
